No end group written: not given here.
Columns and labels:
whole bacteria, CF CS1 = test: Agglutination of whole bacteria by serum of immunized rabbits; format: cell-based, E. coli; conditions: two rabbits immunized per preparation
CS17 = test: Western blot of immune serum with denatured protein; format: binding, E. coli; conditions: 4 strong reaction, rabbit serum
Method: (§1) Rabbits were bled, then immunized on day 0 with a composition containing 280 μg peptide/BSA conjugate in Freund's complete adjuvant. On day 21, the animals were boosted with 140 μg peptide/BSA conjugate in Freund's incomplete adjuvant. Blood was drawn on day 32. The interaction of antibodies raised against the specific antigens of the denatured proteins of the various strains was studied by comparing interaction of serum from the animals obtained on day 0 with response on to serum from the animals obtained on day 32 by Western blot. In all instances, the Western blot was negative for reaction with serum obtained on day 0. The Western blot data on interaction of immune serum collected on day 32 with the denatured proteins is given below with 0 being no reaction and 4 being a strong reaction:
(§2) Rabbits were given a composition containing 400 μg peptide of the formula: […] (SEQ ID NO:1) in complete Freund's adjuvant. The response was evaluated as in Example 2:
(§3) The same study was done comparing antibodies raised to denatured proteins of PCF 0166.
(§4) Effect of antibody raised to whole CS2 protein was studied in the manner of example 5.

CS4 = test: as above; format: binding, E. coli; conditions: 4 strong reaction, rabbit serum
Method: as §1, §2, §3, §4

CFA/I = test: as above; format: binding, E. coli; conditions: 4 strong reaction, rabbit serum
Method: as §1, §2, §3, §4

CS1 = test: as above; format: binding, E. coli; conditions: 4 strong reaction, rabbit serum
Method: as §1, §2, §3, §4

0166 = test: as above; format: binding, E. coli; conditions: 4 strong reaction, rabbit serum
Method: as §1, §2, §3, §4

CS2 = test: as above; format: binding, E. coli; conditions: 4 strong reaction, rabbit serum
Method: as §1, §2, §3, §4

whole bacteria, CF CS2 = test: Agglutination of whole bacteria by serum of immunized rabbits; format: cell-based, E. coli; conditions: two rabbits immunized per preparation
whole bacteria, CF CFA/1 = test: as above; format: cell-based, E. coli; conditions: two rabbits immunized per preparation
whole bacteria, CF 0166 = test: as above; format: cell-based, E. coli; conditions: two rabbits immunized per preparation
whole bacteria, CF CS4 = test: as above; format: cell-based, E. coli; conditions: two rabbits immunized per preparation
whole bacteria, CF CS17 = test: as above; format: cell-based, E. coli; conditions: two rabbits immunized per preparation
[1] = test system: antibodies raised to the consensus peptide; test: ELISA of 8-mer peptides with rabbit antibodies; format: binding; conditions: for interaction of peptides with the antibodies raised to the consensus peptide: rabbit antibodies raised to consensus peptide SEQ ID NO:1; for reactivity of 8-mer peptides with antibodies from the rabbits: rabbit antibodies raised to consensus peptide SEQ ID NO:1, biotin-SGSG-peptide on streptavidin
Method: (§5) Blocks of pins for cleavable syntheses were obtained from Chiron Mimotopes U.S. Peptide synthesis was carried out according to the manufacturer's instructions using Opfp-derivatized amino acids. Peptides of length 8 with 7 overlap were manufactured in order to locate all linear epitopes in the sequence with a highest redundancy. […] Peptides were cleaved from the pins using 0.1 M phosphate buffer, pH 8.0, containing 40% acetonitrile. Two peptides were made and sacrificed for amino acid analysis as proof of peptide purity. A dinitrophenol (DNP) pin was included so that the efficiency of the cleavage could be monitored spectrophotometrically.
(§6) For blocking, a composition containing 5% nonfat dry milk in PBS+0.2% sodium azide was used. Stock streptavidin (Calbiochem Corp., La Jolla, Calif.) at 1 mg/ml in water was kept frozen in aliquots for up to several months. On the day of use, the stock streptavidin was diluted in phosphate buffered saline (PBS) to provide a concentration of 5 μg/ml streptavidin. Goat F(ab′)2 anti-mouse, anti-rabbit and anti-human sera were labeled with alkaline phosphatase (Biosource, International, Camarillo, Calif.).
(§7) Streptavidin was plated at 5 μg/ml, 50 μl per well, and incubated over night at 4° C. Plates were then washed by hand (Nunc Immunowash 12 hand plate washer. Fisher Scientific, Pittsburgh, Pa.) three times with PBS/0.1% TWEEN 20™. Peptides were then diluted to 10 μg/ml in PBS and plated at 50-μl/well. After incubation for one hour at room temperature followed by washing, the peptides were incubated with sera diluted in blocker at appropriate concentrations (5% nonfat dry milk) for 2 hours at room temperature. After washing the wells, 50 μl of phosphatase-labeled anti-serum IgG diluted 1:1000 in blocker was added to each well and was allowed to incubate at room temperature for 1 hour. The plates were washed. The 100 μl of PNDP (p-nitrophenylphosphate) substrate, prepared according to the manufacturer's instructions, was added to each well. Results were read at 5, 15 and 60 minutes using a microtiter plate reader (UVmax™, Moelcular Devices, Sunnyvale, Calif.).
Antibodies from the rabbits were then tested against the specific 8-mer peptides obtained from SEQ ID NO:1 in the manner disclosed above to determine the binding sites of the antibodies in the sera with the consensus peptide.

Antibody to CS1 = test: ELISA of 8-mer peptides (pins) with rabbit serum; format: binding; conditions: a listed pin number means recognized
Method: as §5, §6, §7
(§8) Partially to fully purified colonization factor (40% to 100% pure) was run on SDS-PAGE gel (5-15 μg/lane of 10 comb gel (precast 10 comb, 1 mm thickness, Tris-tricene gel from Novex, San Diego, Calif.), for primary immunization run 9 lanes for each rabbit (45-135 μg CF protein with ½ the amount used in the primary immunization used as a booster). The gel was stained with 0.5% COOMASSIE BLUE™ (BioRad, Richmond, Calif.) in water for 1 hour, then destained with multiple changes of water for 60-90 minutes. The colonization factor bands were excised with a scalpel and the excess gel trimmed. The bands were stored at −20° C. until use.
(§9) After removal from freezer, the gel slices were transferred to a glass tissue homogenizer using a teflon pestle with grooves at the tip. The slices were ground with 0.3 ml phosphate buffered saline (PBS). The drill was run to homogenize the gel for 30 to 45 seconds. (In the instant case, a pestle with a shaft of steel was used which allowed placement of the pestle into the chuck of the hand-held drill.)
(§10) The homogenate was transferred to 16 mm×150 mm test tubes with disposable plastic transfer pipet. The pestle and homogenizer vessel was rinsed repeatedly with PBS and the contents transferred to the 16×150 test tube until a volume of 1.2 ml was obtained.
(§11) The sample obtained above was placed in a vortex mixer and vortexed on high. Freund's adjuvant 1.2 ml was added. (Complete Freund's was used for the primary immunization, while incomplete Freund's was used for the boost.) The composition was vortexed until a thick emulsion of almost a butter consistency was obtained (12-20 minutes).
(§12) A preimmune serum was obtained on all animals, which were then immunized with the 1 ml of the emulsion subcutaneously at 4-6 spots on the shoulders and rump. The animals were boosted three weeks later, then bleed 10 days after the booster shots. […]

Antibody to CS4 = test: ELISA of 8-mer peptides (pins) with rabbit serum; format: binding; conditions: a listed pin number means recognized
Method: as §5, §6, §7, §8, §9, §10, §11, §12

Antibody to 0166 lower = test: ELISA of 8-mer peptides (pins) with rabbit serum; format: binding
Method: as §5, §6, §7, §8, §9, §10, §11, §12

Antibody to 0166 upper = test: ELISA of 8-mer peptides (pins) with rabbit serum; format: binding
Method: as §5, §6, §7, §8, §9, §10, §11, §12

Antibody to CFA/I = test: ELISA of 8-mer peptides (pins) with rabbit serum; format: binding
Method: as §5, §6, §7, §8, §9, §10, §11, §12

Antibody to CS2 = test: ELISA of 8-mer peptides (pins) with rabbit serum; format: binding; conditions: a listed pin number means recognized
Method: as §5, §6, §7, §8, §9, §10, §11, §12

[2] = rabbit 1082, a listed pin number means recognized
[3] = rabbit 1081, a listed pin number means recognized
[4] = rabbit 1079, a listed pin number means recognized

Row | Substance | agglutination of whole bacteria by serum (whole bacteria, CF CS1) | Western blot reaction of immune serum with denatured protein (CS17; titer 1:50, 0 no reaction) | Western blot reaction of immune serum with denatured protein (CS17; titer 1:500, 0 no reaction) | Western blot reaction of immune serum with denatured protein (CS17; titer 1:5000, 0 no reaction) | Western blot reaction of immune serum with denatured protein (CS17; titer 1:50000, 0 no reaction) | Western blot reaction of immune serum with denatured protein (CS4; titer 1:50, 0 no reaction) | Western blot reaction of immune serum with denatured protein (CS4; titer 1:500, 0 no reaction) | Western blot reaction of immune serum with denatured protein (CS4; titer 1:5000, 0 no reaction) | Western blot reaction of immune serum with denatured protein (CS4; titer 1:50000, 0 no reaction) | Western blot reaction of immune serum with denatured protein (CS1; titer 1:50, 0 no reaction) | Western blot reaction of immune serum with denatured protein (CS1; titer 1:500, 0 no reaction) | Western blot reaction of immune serum with denatured protein (CS1; titer 1:5000, 0 no reaction) | Western blot reaction of immune serum with denatured protein (CS1; titer 1:50000, 0 no reaction) | Western blot reaction of immune serum with denatured protein (0166; titer 1:50, 0 no reaction) | Western blot reaction of immune serum with denatured protein (0166; titer 1:500, 0 no reaction) | agglutination of whole bacteria by serum (whole bacteria, CF CS2) | agglutination of whole bacteria by serum (whole bacteria, CF CFA/1) | agglutination of whole bacteria by serum (whole bacteria, CF 0166) | agglutination of whole bacteria by serum (whole bacteria, CF CS4) | agglutination of whole bacteria by serum (whole bacteria, CF CS17) | also measured
1 | peptide/BSA conjugate: consensus peptide with added terminal cysteine (SEQ ID NO:37) conjugated to iodoacetylated bovine serum albumin (CVEKNITVTASVDPTIDLLQADGSALPSAVALTYSPA; also: conjugated via added terminal Cys to iodoacetylated BSA; listed as Escherichia coli) | 1/2 | 4 | 3 | 2 | 0.5 | 4 | 4 | 3 | 2 | 4 | 4 | 4 | 4 | 4 | 1 | 2/2 | 1/2 | 1/2 | 0/2 | 0/2 | Western blot reaction of immune serum with denatured protein (CFA/I; titer 1:50, 0 no reaction): 4; Western blot reaction of immune serum with denatured protein (CFA/I; titer 1:500, 0 no reaction): 3; Western blot reaction of immune serum with denatured protein (CFA/I; titer 1:5000, 0 no reaction): 2; Western blot reaction of immune serum with denatured protein (0166; titer 1:5000, 0 no reaction): 3; Western blot reaction of immune serum with denatured protein (CS2; titer 1:50, 0 no reaction): 4; Western blot reaction of immune serum with denatured protein (CS2; titer 1:500, 0 no reaction): 4; Western blot reaction of immune serum with denatured protein (CS2; titer 1:5000, 0 no reaction): 4
2 | PTIDLLQA (listed as Escherichia coli) [compound 13] |  |  |  |  |  |  |  |  |  |  |  |  |  |  |  |  |  |  |  |  | interaction of peptides with the antibodies raised to the consensus peptide [1]: more reliably interactive; reactivity of 8-mer peptides with antibodies from the rabbits [1]: most reactive; pins (8-aa peptide) recognized by serum (Antibody to CS1; Antibody to CS1, rabbit 1089): 13; pins (8-aa peptide) recognized by serum (Antibody to CS1; Antibody to CS1, rabbit 1090): 13; pins (8-aa peptide) recognized by serum (Antibody to CS4; Antibody to CS4, rabbit 938): 13; pins (8-aa peptide) recognized by serum (Antibody to CS4; Antibody to CS4, rabbit 940): 13; pins (8-aa peptide) recognized by serum (Antibody to 0166 lower; [2]): 13; pins (8-aa peptide) recognized by serum (Antibody to 0166 lower; rabbit 1083, a listed pin number means recognized): 13; pins (8-aa peptide) recognized by serum (Antibody to 0166 upper; rabbit 934, a listed pin number means recognized): 13; pins (8-aa peptide) recognized by serum (Antibody to 0166 upper; [3]): 13; pins (8-aa peptide) recognized by serum (Antibody to CFA/I; rabbit 1078, a listed pin number means recognized): 13; pins (8-aa peptide) recognized by serum (Antibody to CFA/I; [4]): 13
3 | VDPTIDLL (listed as Escherichia coli) [compound 11] |  |  |  |  |  |  |  |  |  |  |  |  |  |  |  |  |  |  |  |  | interaction of peptides with the antibodies raised to the consensus peptide [1]: more reliably interactive; reactivity of 8-mer peptides with antibodies from the rabbits [1]: most reactive; pins (8-aa peptide) recognized by serum (Antibody to CS1; Antibody to CS1, rabbit 1089): 11; pins (8-aa peptide) recognized by serum (Antibody to CS1; Antibody to CS1, rabbit 1090): 11; pins (8-aa peptide) recognized by serum (Antibody to CS4; Antibody to CS4, rabbit 938): 11; pins (8-aa peptide) recognized by serum (Antibody to CS4; Antibody to CS4, rabbit 940): 11; pins (8-aa peptide) recognized by serum (Antibody to CS2; Antibody to CS2, rabbit 1076): 11; pins (8-aa peptide) recognized by serum (Antibody to CS2; Antibody to CS2, rabbit 1077): 11; pins (8-aa peptide) recognized by serum (Antibody to 0166 lower; [2]): 11; pins (8-aa peptide) recognized by serum (Antibody to 0166 upper; [3]): 11; pins (8-aa peptide) recognized by serum (Antibody to CFA/I; [4]): 11
4 | VEKNITVTASVDPTIDLLQADGSALPSAVALTYSPA (listed as Escherichia coli) [SEQ ID NO:1, 36 amino acid consensus peptide of the CS4-CFA/I family] | 0/2 | 2 | 0 | 0 | 0 | 2 | 0 | 0 | 0 | 4 | 4 | 2 | 1 | 4 | 2 | 0/2 | 0/2 | 0/2 | 0/2 | 0/2 | 

Reference: US20040229772A1, “Peptides responsive to antibodies against consensus peptide of the CS4-CFA/I family proteins” (priority 1996, published 2004)
